These results are taken from ChEMBL document CHEMBL1201862, “PubChem BioAssay data set” (2004).

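Step 1: Grow cells in 96-well plates. Step 2: Expose to compound for 48 hours at 5 concentrations. Step 3: Interpolate endpoints linearly; if unreached, use highest concentration. The concentration for 50% growth inhibition is given as GI50.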 Activity calls are given as the source filed them. Rule as the data show it: active = GI50 up to about 1.1 µM and inactive = higher.

Among the test systems are HCT-15; HT-29; IGROV-1; K562; Malme-3M; NCI-H226; NCI-H460; NCI/ADR-RES; SF-295; SF-539; SK-MEL-2; SK-MEL-5; SK-OV-3; SNB-19; U-251; UACC-257; EKVX; OVCAR-4; RPMI-8226; HOP-92.
Common to all, as to experiment: NCI tumour cell line growth inhibition, 48 h

With `Cc1ncc([N+](=O)[O-])n1CCNC(=O)CCCCCn1ccnc1[N+](=O)[O-]`, the GI50 with HCT-15 is more than 100 µM; in the assay with HT-29, > 100 µM (inactive); in the assay on IGROV-1, > 100 µM (inactive); in the assay on K562, > 100 µM (inactive); in the assay on Malme-3M, > 100 µM (inactive); in the assay with NCI-H226 it was > 100 µM (inactive). For the same compound, the GI50 in the assay with NCI-H460, with NCI/ADR-RES, in the assay on SF-295, in the assay on SF-539, in the assay on SK-MEL-2 and in the assay on SK-MEL-5 was > 100 µM (inactive) each time. For the same compound, the GI50 in the assay with SK-OV-3, with SNB-19, in the assay on U-251 and with UACC-257 was > 100 µM (inactive) throughout.
Regarding `Cc1nc2ccc(NC3OC(CO)C(O)C(O)C3O)cc2c(=O)n1-c1ccccc1` (centres undefined), the GI50 in the assay with EKVX is > 100 µM (inactive); in the assay with HCT-15 it was more than 100 µM; in the assay on HT-29, > 100 µM (inactive); with IGROV-1, > 100 µM (inactive); in the assay with K562 it was > 100 µM (inactive); in the assay on Malme-3M it was > 100 µM (inactive). The GI50 in the assay on NCI-H226, in the assay on NCI-H460, with NCI/ADR-RES, in the assay on OVCAR-4, with RPMI-8226 and with SF-295 was > 100 µM (inactive) throughout. Moreover, the GI50 with SK-MEL-2 was > 100 µM (inactive); in the assay with SK-MEL-5 it was 58.3 µM (inactive); with SNB-19, > 100 µM (inactive); with U-251, > 100 µM (inactive); in the assay on UACC-257, > 100 µM (inactive).
Take `Cc1c(Cl)cccc1NC(=O)/C(Cl)=C(\Cl)C(=O)O`: the GI50 in the assay with EKVX is > 10 µM (inactive); with HCT-15, 16.4 µM; in the assay on HOP-92, 17.4 µM (inactive); in the assay on HT-29, 19.2 µM (inactive); with IGROV-1, 19.5 µM (inactive); in the assay with K562, 6.19 µM (inactive). The GI50 in the assay with Malme-3M is 17.8 µM (inactive); with NCI-H226 it was 20.7 µM (inactive); in the assay on NCI-H460, > 100 µM (inactive); with OVCAR-4, 16.9 µM (inactive); in the assay on RPMI-8226, 11.8 µM (inactive); in the assay with SF-295, 19.4 µM (inactive). Moreover, the GI50 in the assay on SF-539 is 17 µM (inactive); with SK-MEL-2, 19.8 µM (inactive); in the assay on SK-MEL-5, 20.5 µM (inactive); in the assay with SK-OV-3, 18.9 µM (inactive); in the assay on SNB-19, 44.8 µM (inactive); with U-251, 18.5 µM (inactive). Further, in the assay with UACC-257, the GI50 was 19.3 µM (inactive).
As for `COC(=O)C(Cc1ccccc1)NC(=O)Cn1ccnc1[N+](=O)[O-]` (centres undefined), the GI50 in the assay on EKVX is > 100 µM (inactive); in the assay on HCT-15, more than 100 µM; in the assay with HOP-92, 63.8 µM (inactive); in the assay on HT-29 it was > 100 µM (inactive); in the assay on IGROV-1, > 100 µM (inactive); in the assay on K562, > 100 µM (inactive). In addition, the GI50 in the assay with Malme-3M was 31.7 µM (inactive); with NCI-H226 it was 34 µM (inactive); in the assay with NCI-H460, > 100 µM (inactive); in the assay on OVCAR-4, > 100 µM (inactive); with RPMI-8226 it was > 100 µM (inactive); in the assay with SF-295, > 100 µM (inactive). Further, the GI50 in the assay on SF-539 is > 100 µM (inactive); with SK-MEL-2 it was > 100 µM (inactive); with SK-MEL-5 it was 96.6 µM (inactive); in the assay on SK-OV-3, > 100 µM (inactive); in the assay with SNB-19, > 100 µM (inactive); with U-251, > 100 µM (inactive). In addition, the GI50 in the assay with UACC-257 was > 100 µM (inactive).
For the compound `O=C(CCCCCCCCC(=O)OCC1OC(n2cnc3c(=O)[nH]cnc32)C(O)C1O)OCC1OC(n2cnc3c(=O)[nH]cnc32)C(O)C1O` (centres undefined), the GI50 in the assay on EKVX was > 100 µM (inactive); with HCT-15, more than 100 µM; in the assay on HOP-92 it was > 100 µM (inactive); in the assay with HT-29 it was > 100 µM (inactive); with IGROV-1, > 100 µM (inactive); with K562, > 100 µM (inactive). The GI50 in the assay with Malme-3M, in the assay on NCI-H226, in the assay on NCI-H460, with OVCAR-4, in the assay with RPMI-8226 and in the assay with SF-295 was > 100 µM (inactive) in each case. The GI50 in the assay on SF-539, with SK-MEL-2, in the assay with SK-MEL-5, in the assay with SK-OV-3, in the assay with SNB-19 and with U-251 was > 100 µM (inactive) each time. Moreover, in the assay on UACC-257, the GI50 was > 100 µM (inactive).
For the compound `N#Cc1c(NC(=S)Nc2ccccc2)sc2c1CCCC2`, the GI50 in the assay with EKVX is > 100 µM (inactive); in the assay with HCT-15, more than 100 µM; in the assay on HT-29 it was > 100 µM (inactive); in the assay on IGROV-1, > 100 µM (inactive); with K562 it was > 100 µM (inactive); in the assay with Malme-3M it was > 100 µM (inactive). Moreover, the GI50 with NCI-H226, in the assay on NCI-H460, with NCI/ADR-RES, with OVCAR-4, in the assay on RPMI-8226 and in the assay on SF-295 was > 100 µM (inactive) each time. Also, the GI50 in the assay with SK-MEL-2, with SK-MEL-5, in the assay with SNB-19, in the assay with U-251 and in the assay on UACC-257 was > 100 µM (inactive) throughout.
For the compound `COc1ccc(CNC(=O)[C@H](Cc2ccc(O)cn2)NC(C)=O)cc1`, the GI50 in the assay on EKVX is 87.7 µM (inactive); with HCT-15, more than 100 µM; in the assay with HT-29, > 100 µM (inactive); with IGROV-1 it was > 100 µM (inactive); in the assay on K562, > 100 µM (inactive); with NCI-H226, > 100 µM (inactive). The GI50 with NCI-H460 is > 100 µM (inactive); in the assay with NCI/ADR-RES it was > 100 µM (inactive); with OVCAR-4 it was > 100 µM (inactive); with RPMI-8226 it was 64.9 µM (inactive); with SF-295, > 100 µM (inactive); in the assay on SF-539 it was > 100 µM (inactive). Also, the GI50 with SK-MEL-2, in the assay on SK-MEL-5, in the assay with SK-OV-3, in the assay with SNB-19, in the assay with U-251 and in the assay on UACC-257 was > 100 µM (inactive) throughout.
Regarding `C/C(CC(=O)NC1=CC=C(NC(=O)C/C(C)=N\Nc2ccccc2)CC1)=N/Nc1ccccc1`, the GI50 with EKVX is > 100 µM (inactive); in the assay with HCT-15, 29.7 µM; with HOP-92 it was > 100 µM (inactive); in the assay on HT-29 it was > 100 µM (inactive); in the assay on IGROV-1, > 100 µM (inactive); with K562, 75.7 µM (inactive). Also, the GI50 in the assay on Malme-3M, in the assay with NCI-H226, in the assay with NCI-H460, with OVCAR-4, in the assay with RPMI-8226 and in the assay on SF-295 was > 100 µM (inactive) throughout. Besides, the GI50 with SF-539, with SK-MEL-2, in the assay with SK-MEL-5, with SK-OV-3, with SNB-19 and in the assay with U-251 was > 100 µM (inactive) in each case. For the same compound, the GI50 in the assay with UACC-257 is > 100 µM (inactive).
On to `Cc1c(-c2ccccc2)c(=O)oc2ccc(Cl)cc12`, for which the GI50 with EKVX is 64.7 µM (inactive); in the assay with HCT-15, more than 100 µM; with HOP-92, 32.7 µM (inactive); in the assay with HT-29, > 100 µM (inactive); in the assay with IGROV-1 it was > 100 µM (inactive); in the assay with K562 it was > 100 µM (inactive). Further, the GI50 in the assay with Malme-3M is 99.3 µM (inactive); in the assay on NCI-H226, > 100 µM (inactive); in the assay with NCI-H460, 70.5 µM (inactive); in the assay with OVCAR-4, 53.3 µM (inactive); in the assay on RPMI-8226 it was > 100 µM (inactive); in the assay with SF-295 it was > 100 µM (inactive). The GI50 in the assay on SF-539 was 38.2 µM (inactive); in the assay with SK-MEL-2 it was > 100 µM (inactive); in the assay on SK-MEL-5, 40.3 µM (inactive); in the assay with SK-OV-3, 34.4 µM (inactive); with SNB-19 it was 63 µM (inactive); in the assay with U-251, 46.9 µM (inactive). Moreover, the GI50 in the assay with UACC-257 was 8.55 µM (inactive).
`CN(C)C1C(CO)OC(n2cnc3c(N)ncnc32)C1O` (centres undefined): the GI50 in the assay with EKVX was > 100 µM (inactive); in the assay on HCT-15 it was more than 100 µM; with HT-29, > 100 µM (inactive); with IGROV-1, > 100 µM (inactive); with K562 it was > 100 µM (inactive); in the assay with NCI-H226, > 100 µM (inactive). In addition, the GI50 in the assay with NCI-H460, in the assay on NCI/ADR-RES, in the assay on OVCAR-4, in the assay with RPMI-8226, in the assay on SF-295 and in the assay on SF-539 was > 100 µM (inactive) each time. Further, the GI50 in the assay on SK-MEL-2, in the assay on SK-MEL-5, in the assay on SK-OV-3, in the assay with SNB-19, in the assay with U-251 and in the assay with UACC-257 was > 100 µM (inactive) in each case.
Regarding `Nc1nc2cc3nc(N)c(N)nc3cc2nc1N`, the GI50 with EKVX is > 100 µM (inactive); with HCT-15, more than 100 µM; with HT-29, > 100 µM (inactive); in the assay with IGROV-1 it was > 100 µM (inactive); with K562, > 10 µM (inactive); with Malme-3M, > 100 µM (inactive). In addition, the GI50 in the assay on NCI-H226, with NCI-H460, with NCI/ADR-RES, in the assay with RPMI-8226, in the assay on SF-295 and in the assay on SF-539 was > 100 µM (inactive) throughout. The GI50 in the assay on SK-MEL-2, in the assay with SK-MEL-5, in the assay on SK-OV-3, in the assay with SNB-19, in the assay on U-251 and with UACC-257 was > 100 µM (inactive) each time.
